Experimental data as given in publication PMC6057745, “The dual role of chloride in synaptic vesicle glutamate transport” (eLife, 2018).
pEC50, pIC50: −log10 of the molar value.

How the values were obtained:
[1] = biological target: T1, VGLUT1 (Rattus norvegicus, UniProt Q62634); assay: whole endosome patch clamp, block of Cl- and glutamate currents; assay type: biochemical
T1 construct: gene Slc17a7; full-length rat VGLUT1 fused to EGFP (pEGFP-N1); co-expressed with Rab5 Q79L-mCherry in HEK293T; whole endosome recording of isolated enlarged endosomes
T1 sequence (Q62634 1-560): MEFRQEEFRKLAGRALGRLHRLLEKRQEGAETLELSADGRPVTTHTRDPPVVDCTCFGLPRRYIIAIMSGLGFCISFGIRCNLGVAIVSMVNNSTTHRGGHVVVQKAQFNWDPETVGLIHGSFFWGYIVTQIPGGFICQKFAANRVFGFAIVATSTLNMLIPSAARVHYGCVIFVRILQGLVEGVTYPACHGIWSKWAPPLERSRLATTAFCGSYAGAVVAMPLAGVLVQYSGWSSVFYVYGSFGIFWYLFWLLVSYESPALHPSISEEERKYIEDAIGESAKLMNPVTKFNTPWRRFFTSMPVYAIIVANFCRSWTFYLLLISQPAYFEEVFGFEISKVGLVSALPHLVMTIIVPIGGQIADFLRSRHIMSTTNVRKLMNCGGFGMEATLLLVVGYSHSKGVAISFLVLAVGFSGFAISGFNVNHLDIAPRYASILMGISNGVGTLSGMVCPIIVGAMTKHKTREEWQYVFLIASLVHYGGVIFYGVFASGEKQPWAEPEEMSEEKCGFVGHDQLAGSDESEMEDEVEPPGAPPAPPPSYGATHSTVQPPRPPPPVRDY

[2] = biological target: T1, VGLUT1; assay: whole endosome patch clamp, outward glutamate currents; assay type: biochemical
Experimental: whole endosome patch clamp, outward glutamate currents on VGLUT1 | glutamate currents saturate with EC50376 µM

pIC50 [1] | pEC50 [2] | SMILES
~6.70 |  | Cc1cc(-c2ccc(/N=N/c3ccc4c(S(=O)(=O)O)cc(S(=O)(=O)O)c(N)c4c3O)c(C)c2)ccc1/N=N/c1ccc2c(S(=O)(=O)O)cc(S(=O)(=O)O)c(N)c2c1O [Evans Blue]
 | 3.42 | N[C@@H](CCC(=O)O)C(=O)O [glutamate]
